In data set [1] the test system is Klebsiella pneumoniae SSI3010. As to conditions: SSI3010. Put shortly: (§1)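 Two-fold serial dilutions of peptide, in water with polysorbate 80 (0.002% final), met bacteria adjusted to 0.5 McFarland then diluted to about 5×10^5 CFU/mL. Medium was cation-adjusted Mueller-Hinton II broth; peptide stocks were 1 mg/mL in sterile water.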
The subject of data set [2] is Escherichia coli MCR-1 Af 45. Put shortly: as §1
For data set [3], the system named is Escherichia coli ATCC 25922. As to conditions: ATCC 25922. In short, it runs like this: as §1
Data set [4] has as its system human red blood cells (hRBC). Description: Hemolysis of human red blood cells. Format: cell-based. The note with it: red cells of human, 1 h. Put shortly:
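PBS-washed human red blood cells (20% v/v) were incubated with peptide at 200 μg/mL for 1 h at 37 °C with shaking. Supernatant OD was read at 540 nm after 8-fold dilution. Hemolysis is expressed as percent of the water control.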

Where two headings read alike, the source gives them in different places. Bridge positions count the residues as written; N and C are the ends. Square brackets hold non-standard residues; d marks the D form. Peptide text beside a SMILES is read from it. Gly(N-2-aminoethyl) = NCCNCC(=O)O; Hyp = O=C(O)[C@@H]1C[C@@H](O)CN1; Pen = CC(C)(S)[C@H](N)C(=O)O; dDab = NCC[C@@H](N)C(=O)O; Dab = NCC[C@H](N)C(=O)O Some results are limits rather than exact numbers.

Regarding `CC[C@H](C)[C@H](NC(=O)CN(CCN)C(=O)[C@@H](NC(=O)[C@@H]1C[C@@H](O)CN1C(=O)[C@H](CCCCN)NC(=O)[C@@H](N)CCCCN)C(C)C)C(=O)N[C@H](C(=O)N[C@@H](Cc1ccc(O)cc1)C(=O)N[C@@H]1C(=O)N[C@@H](CC(N)=O)C(=O)N[C@@H](CCCNC(=N)N)C(=O)N[C@@H](CCN)C(=O)N[C@@H]([C@@H](C)O)C(=O)N[C@H](CCN)C(=O)N[C@@H](CCCCN)C(=O)N[C@H](C(=O)N[C@@H](CCN)C(=O)N[C@@H](CCCNC(=N)N)C(=O)N[C@@H](Cc2ccc(O)cc2)C(=O)O)CSSC1(C)C)[C@@H](C)O` [Example 126, Lys-Lys-Hyp-Val-Ndab-Ile-Thr-Tyr-Pen-Asn-Arg-Dab-Thr-^DDab-Lys-Cys-Dab-Arg-Tyr] (HELM PEPTIDE1{K.K.[Hyp].V.[NCCN(CC(=O)[*:2])[*:1]].I.T.Y.[Pen].N.R.[Dab].T.[NCC[C@@H](N[*:1])C(=O)[*:2]].K.C.[Dab].R.Y}$PEPTIDE1,PEPTIDE1,9:R3-16:R3$$$V2.0), the “Klebsiella pneumoniae SSI3010 MIC” value in data set [1] was 0.0625 µg/mL. Further, in data set [2] (MCR-1 Af 45), the “Escherichia coli MCR-1 Af 45 MIC” value was not above 0.03125 µg/mL. In addition, the “Escherichia coli ATCC 25922 MIC” value in data set [3] is not above 0.03125 µg/mL. Further, the “Hemolysis at 0.2 g/L” value in data set [4] came to 0%.

Consider `CC[C@H](C)[C@H](NC(=O)[C@@H]1C[C@@H](O)CN1C(=O)[C@@H](NC(=O)[C@@H]1C[C@@H](O)CN1C(=O)[C@H](CCCCN)NC(=O)[C@@H](N)CCCCN)C(C)C)C(=O)N[C@H](C(=O)N[C@@H](Cc1ccc(O)cc1)C(=O)N[C@@H]1C(=O)N[C@@H](CC(N)=O)C(=O)N[C@@H](CCCNC(=N)N)C(=O)N[C@@H](CCN)C(=O)N[C@@H]([C@@H](C)O)C(=O)N[C@H](CCN)C(=O)N[C@@H](CCCCN)C(=O)N[C@H](C(=O)N[C@@H](Cc2ccc(O)cc2)C(=O)N[C@@H](CCCNC(=N)N)C(=O)N[C@@H](Cc2ccc(O)cc2)C(=O)O)CSSC1(C)C)[C@@H](C)O` [Example 128, Lys-Lys-Hyp-Val-Hyp-Ile-Thr-Tyr-Pen-Asn-Arg-Dab-Thr-^DDab-Lys-Cys-Tyr-Arg-Tyr] (HELM PEPTIDE1{K.K.[Hyp].V.[Hyp].I.T.Y.[Pen].N.R.[Dab].T.[NCC[C@@H](N[*:1])C(=O)[*:2]].K.C.Y.R.Y}$PEPTIDE1,PEPTIDE1,9:R3-16:R3$$$V2.0; N-terminus and C-terminus assumed), for which the “Klebsiella pneumoniae SSI3010 MIC” value in data set [1] is 0.125 µg/mL. In addition, the “Escherichia coli MCR-1 Af 45 MIC” value in data set [2] (MCR-1 Af 45) is 0.0625 µg/mL. Further, the “Escherichia coli ATCC 25922 MIC” value in data set [3] was found to be 0.125 µg/mL. In data set [4], the “Hemolysis at 0.2 g/L” value is reported as 0%.

Take `CC[C@H](C)[C@H](NC(=O)CN(CCN)C(=O)[C@@H](NC(=O)[C@@H]1C[C@@H](O)CN1C(=O)[C@H](CCCCN)NC(=O)[C@@H](N)CCCCN)C(C)C)C(=O)N[C@H](C(=O)N[C@@H](Cc1ccc(O)cc1)C(=O)N[C@@H]1C(=O)N[C@@H](CC(N)=O)C(=O)N[C@@H](CCCNC(=N)N)C(=O)N[C@@H](CCN)C(=O)N[C@@H]([C@@H](C)O)C(=O)N[C@H](CCN)C(=O)N[C@@H](CCCCN)C(=O)N[C@H](C(=O)N[C@@H](Cc2ccc(O)cc2)C(=O)N[C@@H](CCCNC(=N)N)C(=O)N[C@@H](Cc2ccc(O)cc2)C(=O)O)CSSC1(C)C)[C@@H](C)O` [Example 129, Lys-Lys-Hyp-Val-Ndab-Ile-Thr-Tyr-Pen-Asn-Arg-Dab-Thr-^DDab-Lys-Cys-Tyr-Arg-Tyr] (HELM PEPTIDE1{K.K.[Hyp].V.[NCCN(CC(=O)[*:2])[*:1]].I.T.Y.[Pen].N.R.[Dab].T.[NCC[C@@H](N[*:1])C(=O)[*:2]].K.C.Y.R.Y}$PEPTIDE1,PEPTIDE1,9:R3-16:R3$$$V2.0): the “Klebsiella pneumoniae SSI3010 MIC” value in data set [1] was found to be 0.125 µg/mL. Also, the “Escherichia coli MCR-1 Af 45 MIC” value in data set [2] (MCR-1 Af 45) is 0.0625 µg/mL. Besides, the “Escherichia coli ATCC 25922 MIC” value in data set [3] was found to be 0.25 µg/mL. Further, the “Hemolysis at 0.2 g/L” value in data set [4] is reported as 0%.

In the case of `CC[C@H](C)[C@H](NC(=O)CN(CCN)C(=O)[C@@H](NC(=O)[C@@H]1C[C@@H](O)CN1C(=O)[C@H](CCCCN)NC(=O)CNCCN)C(C)C)C(=O)N[C@H](C(=O)N[C@@H](Cc1ccc(O)cc1)C(=O)N[C@@H]1C(=O)N[C@@H](CC(N)=O)C(=O)N[C@@H](CCCNC(=N)N)C(=O)N[C@@H](CCN)C(=O)N[C@@H]([C@@H](C)O)C(=O)N[C@H](CCN)C(=O)N[C@@H](CCCCN)C(=O)N[C@H](C(=O)N[C@@H](Cc2ccc(O)cc2)C(=O)N[C@@H](CCCNC(=N)N)C(=O)N[C@@H](Cc2ccc(O)cc2)C(=O)O)CSSC1(C)C)[C@@H](C)O` [Example 130, Ndab-Lys-Hyp-Val-Ndab-Ile-Thr-Tyr-Pen-Asn-Arg-Dab-Thr-^DDab-Lys-Cys-Tyr-Arg-Tyr] (H-[Gly(N-2-aminoethyl)]K[Hyp]V[Gly(N-2-aminoethyl)]ITY[Pen]NR[Dab]T[dDab]KCYRY-OH; disulfide 9-16), in data set [1], the “Klebsiella pneumoniae SSI3010 MIC” value is 0.25 µg/mL. In addition, the “Escherichia coli MCR-1 Af 45 MIC” value in data set [2] (MCR-1 Af 45) is 0.125 µg/mL. For the same compound, the “Escherichia coli ATCC 25922 MIC” value in data set [3] is 0.25 µg/mL. Besides, the “Hemolysis at 0.2 g/L” value in data set [4] is recorded as 0%.

With `CC[C@H](C)[C@H](NC(=O)[C@@H](NC(=O)[C@@H]1CCCN1C(=O)[C@@H](NC(=O)[C@@H]1C[C@@H](N)CN1C(=O)[C@H](CCCCN)NC(=O)[C@@H](N)CCCCN)C(C)C)[C@@H](C)CC)C(=O)N[C@@H](Cc1ccc(O)cc1)C(=O)N[C@H]1CCNC(=O)CC[C@@H](C(=O)N[C@@H](CCN)C(=O)N[C@@H](CCCNC(=N)N)C(=O)N[C@@H](Cc2ccc(O)cc2)C(=O)O)NC(=O)[C@H](CCCCN)NC(=O)[C@@H](CCN)NC(=O)[C@H]([C@@H](C)O)NC(=O)[C@H](CCN)NC(=O)[C@H](CCCNC(=N)N)NC(=O)[C@H](CC(N)=O)NC1=O` [Example 131, Lys-Lys-Pro((4R)NH2)-Val-Pro-Ile-Ile-Tyr-Dab-Asn-Arg-Dab-Thr-^DDab-Lys-Glu-Dab-Arg-Tyr] (HELM PEPTIDE1{K.K.[N[C@@H]1C[C@@H](C(=O)[*:2])N([*:1])C1].V.P.I.I.Y.[Dab].N.R.[Dab].T.[NCC[C@@H](N[*:1])C(=O)[*:2]].K.E.[Dab].R.Y}$PEPTIDE1,PEPTIDE1,9:R3-16:R3$$$V2.0), the “Klebsiella pneumoniae SSI3010 MIC” value in data set [1] was found to be 0.25 µg/mL. Further, the “Escherichia coli MCR-1 Af 45 MIC” value in data set [2] (MCR-1 Af 45) is 0.125 µg/mL. Further, the “Escherichia coli ATCC 25922 MIC” value in data set [3] was 0.125 µg/mL. Also, in data set [4], the “Hemolysis at 0.2 g/L” value was 0%.

Consider `CC[C@H](C)[C@H](NC(=O)[C@@H](NC(=O)[C@@H]1CCCN1C(=O)[C@@H](NC(=O)[C@@H]1C[C@@H](N)CN1C(=O)[C@H](CCCCN)NC(=O)[C@@H](N)CCCCN)C(C)C)[C@@H](C)CC)C(=O)N[C@@H](Cc1ccc(O)cc1)C(=O)N[C@H]1CC(=O)NCC[C@@H](C(=O)N[C@@H](CCN)C(=O)N[C@@H](CCCNC(=N)N)C(=O)N[C@@H](Cc2ccc(O)cc2)C(=O)O)NC(=O)[C@H](CCCCN)NC(=O)[C@@H](CCN)NC(=O)[C@H]([C@@H](C)O)NC(=O)[C@H](CCN)NC(=O)[C@H](CCCNC(=N)N)NC(=O)[C@H](CC(N)=O)NC1=O` [Example 132] (HELM PEPTIDE1{K.K.[N[C@@H]1C[C@@H](C(=O)[*:2])N([*:1])C1].V.P.I.I.Y.D.N.R.[Dab].T.[NCC[C@@H](N[*:1])C(=O)[*:2]].K.[Dab].[Dab].R.Y}$PEPTIDE1,PEPTIDE1,9:R3-16:R3$$$V2.0), for which the “Klebsiella pneumoniae SSI3010 MIC” value in data set [1] was 0.0625 µg/mL. The “Escherichia coli MCR-1 Af 45 MIC” value in data set [2] (MCR-1 Af 45) was 0.0625 µg/mL. For the same compound, the “Escherichia coli ATCC 25922 MIC” value in data set [3] amounted to 0.0625 µg/mL. Also, in data set [4], the “Hemolysis at 0.2 g/L” value turned out to be 0%.

On to `CC[C@H](C)[C@H](NC(=O)[C@@H](NC(=O)[C@@H]1CCCN1C(=O)[C@@H](NC(=O)[C@@H]1C[C@@H](N)CN1C(=O)[C@H](CCCCN)NC(=O)[C@@H](N)CCCCN)C(C)C)[C@@H](C)CC)C(=O)N[C@@H](Cc1ccc(O)cc1)C(=O)N[C@H]1CCC(=O)NCC[C@@H](C(=O)N[C@@H](CCN)C(=O)N[C@@H](CCCNC(=N)N)C(=O)N[C@@H](Cc2ccc(O)cc2)C(=O)O)NC(=O)[C@H](CCCCN)NC(=O)[C@@H](CCN)NC(=O)[C@H]([C@@H](C)O)NC(=O)[C@H](CCN)NC(=O)[C@H](CCCNC(=N)N)NC(=O)[C@H](CC(N)=O)NC1=O` [Example 133] (HELM PEPTIDE1{K.K.[N[C@@H]1C[C@@H](C(=O)[*:2])N([*:1])C1].V.P.I.I.Y.E.N.R.[Dab].T.[NCC[C@@H](N[*:1])C(=O)[*:2]].K.[Dab].[Dab].R.Y}$PEPTIDE1,PEPTIDE1,9:R3-16:R3$$$V2.0), for which the “Klebsiella pneumoniae SSI3010 MIC” value in data set [1] amounted to 0.25 µg/mL. In addition, the “Escherichia coli MCR-1 Af 45 MIC” value in data set [2] (MCR-1 Af 45) was found to be 0.25 µg/mL. Besides, the “Escherichia coli ATCC 25922 MIC” value in data set [3] was determined as 0.25 µg/mL. Besides, the “Hemolysis at 0.2 g/L” value in data set [4] turned out to be 0%.

As to `CCCC[C@H](NC(=O)[C@H](CCCNC(=N)N)NC(=O)[C@H](CCN)NC(=O)[C@@H]1CSSC[C@H](NC(=O)[C@H](Cc2ccc(O)cc2)NC(=O)[C@@H](NC(=O)[C@@H](NC(=O)[C@@H]2CCCN2C(=O)[C@@H](N)C(C)C)[C@@H](C)CC)[C@@H](C)CC)C(=O)N[C@@H](CC(N)=O)C(=O)N[C@@H](CCCNC(=N)N)C(=O)N[C@@H](CCCNC(=N)N)C(=O)N[C@@H]([C@@H](C)O)C(=O)N[C@H](CCN)C(=O)N[C@@H](CCCCN)C(=O)N1)C(=O)O` [Example 134] (HELM PEPTIDE1{V.P.I.I.Y.C.N.R.R.T.[NCC[C@@H](N[*:1])C(=O)[*:2]].K.C.[Dab].R.[Nle]}$PEPTIDE1,PEPTIDE1,6:R3-13:R3$$$V2.0), the “Klebsiella pneumoniae SSI3010 MIC” value in data set [1] came to 0.125 µg/mL. Also, the “Escherichia coli MCR-1 Af 45 MIC” value in data set [2] (Mueller-Hinton broth II, 18-20 hours at 35° C.) was 0.0625 µg/mL. Further, the “Escherichia coli ATCC 25922 MIC” value in data set [3] is 0.0625 µg/mL. For the same compound, the “Hemolysis at 0.2 g/L” value in data set [4] is 0%.

The record behind these values is US20230295234A1, “ANTIMICROBIAL PEPTIDOMIMETICS” (SPEXIS AG, priority 2020, published 2023).
